Test results as given in ChEMBL document CHEMBL2424512, “Discovery and biophysical characterization of 2-amino-oxadiazoles as novel antagonists of PqsR, an important regulator of Pseudomonas aeruginosa virulence” (J Med Chem, 2013).
pEC50, pKd: −log10 of the molar value. Calls of active or inactive are those of the source. No cut-off for these calls is given here.

Tests used:
[1] = molecular target: T1, Transcriptional regulator MvfR (Pseudomonas aeruginosa PA14, UniProt A0A072ZLE6); experiment: Binding affinity to Pseudomonas aeruginosa PA14 biotinylated His6SUMO-tagged PqsR expressed in Eschericia coli BL21 (lamda DE3) by isothermal titration calorimetry
T1 sequence (A0A072ZLE6 whole entry): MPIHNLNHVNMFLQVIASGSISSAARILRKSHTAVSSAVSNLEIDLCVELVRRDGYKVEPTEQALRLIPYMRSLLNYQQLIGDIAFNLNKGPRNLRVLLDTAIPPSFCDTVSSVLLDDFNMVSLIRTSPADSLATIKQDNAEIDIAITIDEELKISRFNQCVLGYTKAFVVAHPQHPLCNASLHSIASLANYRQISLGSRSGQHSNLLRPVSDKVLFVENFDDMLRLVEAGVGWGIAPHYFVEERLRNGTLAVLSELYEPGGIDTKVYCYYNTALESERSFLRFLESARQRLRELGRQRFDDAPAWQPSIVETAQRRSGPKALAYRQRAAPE

[2] = molecular target: T1, Transcriptional regulator MvfR; experiment: Binding affinity to Pseudomonas aeruginosa PA14 biotinylated His6SUMO-tagged PqsR expressed in Eschericia coli BL21 (DE3) by surface plasmon resonance spectroscopic analysis
[3] = molecular target: T2, Transcriptional regulator MvfR (Pseudomonas aeruginosa PA14) (UniProt A0A072ZLE6); experiment: Antagonist activity at Pseudomonas aeruginosa PA14 PqsR assessed as reduction of pyocyanin level by UHPLC-MS/MS analysis
T2 sequence (whole entry): T1 sequence (A0A072ZLE6 whole entry)

[4] = molecular target: T1, Transcriptional regulator MvfR; experiment: Antagonist activity at Pseudomonas aeruginosa PA14 PqsR expressed in Eschericia coli DH5-alpha assessed as inhibition of PQS-induced protein activation by beta-galactosidase reporter gene assay
[5] = molecular target: T1, Transcriptional regulator MvfR; experiment: Antagonist activity at Pseudomonas aeruginosa PA14 PqsR expressed in pqs gene-deficient Pseudomonas aeruginosa PA14 by beta-galactosidase reporter gene assay
[6] = test system: Pseudomonas aeruginosa; experiment: Antibacterial activity against Pseudomonas aeruginosa PA14 at 250 uM after 1 to 8 hrs by spectrophotometer analysis; format: functional, organism-based

SMILES	pKd [1]	pKd [2]	pEC50 [4]	further results
CC(C)(C)c1cccc(-c2nnc(N)o2)c1	5.51			
CCCCCCCc1[nH]c2ccccc2c(=O)c1O		6.68		
CC(C)(C)c1ccc(C(=O)NO)cc1				inhibition [3]: Active
CCCCCCCc1cc(=O)c2cc(C(F)(F)F)ccc2[nH]1				inhibition [3]: Active
FC(F)(F)c1cc(-c2cccs2)n[nH]1	5.07	4.97		
Cc1cccc(-c2nnc(N)o2)c1	4.91		4.24	
NC(=O)c1cccc(Br)c1	5.12	5.17		
Nc1nnc(-c2cccc(C(F)(F)F)c2)o1	5.89		5.12	pEC50 [5]: 4.41; Activity [6]: inactive
Nc1nnc(-c2ccc(Cl)cc2)s1	5.43	5.35		
COc1cccc(-c2nnc(N)o2)c1				inhibition [3]: inactive
Cc1nnc(-c2cccc(C(F)(F)F)c2)o1	4.89			
Nc1nnc(-c2ccc(Cl)cc2)o1		3.70		
Nc1nnc(-c2cccc(OC(F)(F)F)c2)o1			4.33	
Nc1nnc(-c2cccc(Br)c2)o1			5.12	
Nc1nnc(-c2cccc(Cl)c2)o1			4.57	
CC(C)(C)c1ccc(C(N)=O)cc1	6.05			
NC(=O)c1ccc2ccccc2c1	5.74	6.10		
N#Cc1cccc(-c2nnc(N)o2)c1			4.75	
FC(F)(F)c1cccc(-c2nnco2)c1	5.19		3.99	
Nc1cccc(Br)n1	5.00	5.17		
